Where “and” joins values, the source holds several entries; their conditions need not be identical. Equal values may be shown once.
Columns and labels:
[1] = Example 31: stability of geranyl-O-β-D-3′-ketoglucopyranoside in D2O at 50° C.; format: physicochemical; settings: 5 mg in D2O (1 mL), 2 weeks
Procedure: Geranyl-O-β-D-3′-ketoglucopyranoside, obtained according to Example 4 (5 mg) was added to D2O (1 mL) and heated at 50° C.

[2] = Example 17: release of geraniol from a 40 mg/mL suspension of geranyl-O-β-D-3′-ketoglucopyranoside, 0.1 M phosphate buffer pH 7, 10% DMSO, 37° C.; format: physicochemical; settings: after 3 d
Procedure: In this example the rate of release of geraniol from a 40 mg/mL suspension of (2R,3S,6R)-2-(((E)-3,7-dimethylocta-2,6-dien-1-yl)oxy)-3,5-dihydroxy-6-(hydroxymethyl)tetrahydro-4H-pyran-4-one (geranyl-O-β-D-3′-ketoglucopyranoside) in 0.1 M deuterated phosphate buffer solution, pH 7, containing 10% DMSO at 37° C. was determined.
In a stoppered glass vial, geranyl-O-β-D-3′-ketoglucopyranoside (20 mg) was dissolved in D6-DMSO (0.05 mL) then diluted with 0.1 M sodium phosphate buffer, pH 7.0 (0.45 mL) and the resultant suspension incubated by shaking at 37° C.

[3] = system: Aedes albopictus mosquitoes; experiment: Example 33: in vitro mosquito testing, landings on treated Hemotek membranes; format: in vivo; settings: for Landing (total number of landings over the 20-minute exposure): 50 mg on membrane, 15 females, duplicate membranes
Procedure: Aedes albopictus mosquitoes were reared and maintained at 26±2° C. temperature, ≥80%±10 relative humidity, with a 12 h:12 h (light:dark) photoperiod.
Populations of adult mosquitoes were allowed to feed on sugar solution (10%) but were not blood fed before tests.
Geranyl-O-β-D-3′-ketoglucopyranoside, obtained according to Example 4, (100 mg) was dissolved in polyethylene glycol 200 (PEG200) (0.2 mL) with gentle heating to give Solution 1. Then 200 mg of L-arginine was dissolved in 2 mL of a 3:7 w/v solution of anhydrous calcium chloride in water to give Solution 2. Solution 2 (0.2 mL) was added to all of Solution 1 to give Solution 3. The contents of Solution 3 were thoroughly mixed and half of the resultant solution was applied to parallel 5 cm diameter artificial Hemotek membranes covered with paper kitchen towel of equal diameter. Parallel duplicate membranes, covered with paper kitchen towel, were also each treated with 0.2 mL of a 1:1 v/v solution of PEG200/Solution 2 and a further two parallel membranes were left untreated.
The membranes were heated over a reservoir of sheeps' blood at 37° C. using a Hemotek system and periodically exposed to 5- to 7-day old active host-seeking female mosquitoes, selected and collected using an aspirator and organized into batches (15 females) in plastic test containers. The heating was switched off between exposures to maintain membrane integrity and switched on 5 minutes prior to each exposure. Each membrane was exposed to a fresh container of female mosquitos for 20 minutes immediately after membrane preparation and again after 2 h, 4 h, 6 h and 8 h. At each time point, the number of mosquitos landing on each membrane immediately after exposure and 5, 10 and 20 minutes after exposure was counted and the total number of landings over each 20-minute exposure summed and tabulated.

[4] = Example 32: release of geraniol from geranyl-O-β-D-3′-ketoglucopyranoside (PEG200, L-arginine, calcium chloride solution) on a paper kitchen towel disc, room temperature; format: physicochemical
Procedure: Geranyl-O-β-D-3′-ketoglucopyranoside, obtained according to Example 4, (50 mg) was dissolved in polyethylene glycol 200 (PEG200) (0.1 mL) with gentle heating. 0.1 mL of a solution of L-arginine (10 mg) dissolved in 0.1 mL of a 3:7 w/v solution of anhydrous calcium chloride in water was then added and thoroughly mixed. The resultant solution was spread over a 5 cm diameter paper kitchen towel disc and left to stand at room temperature. The smell of released geraniol evolved from the disc was then assessed with time as strong, medium or weak and reported in Table XIX:
After 19 h, the reaction mixture was dissolved in D4-MeOH and analysed by 1H NMR.

[5] = Description: alcohol release from model compounds (III), (IV) and compound (V) in buffer, water and skin washings; format: physicochemical
[6] = Example 16: release of geraniol from geranyl-O-β-D-3′-ketoglucopyranoside, 0.1 M deuterated phosphate buffer, 10% D6-DMSO, 37° C., presence and absence of fresh skin wash; format: physicochemical
Procedure: In this example the rate of release of geraniol from (2R,3S,6R)-2-(((E)-3,7-dimethylocta-2,6-dien-1-yl)oxy)-3,5-dihydroxy-6-(hydroxymethyl)tetrahydro-4H-pyran-4-one (geranyl-O-β-D-3′-ketoglucopyranoside) in 0.1 M deuterated phosphate buffer solutions of differing pH containing 10% D6-DMSO or in D2O containing 10% D6-DMSO at 37° C. in the presence and absence of fresh skin wash was determined.
1 M Stock solutions of sodium dihydrogen phosphate and disodium hydrogen phosphate were prepared in deuterated water (D2O).
A stock solution of 25 mg of geranyl-O-β-D-3′-ketoglucopyranoside in 0.5 mL of D6-DMSO were prepared.
In a typical experiment, a stock solution of fresh skin wash suspension was prepared by swabbing a 25 cm^2 areas of cheek skin of a human volunteer by robustly rubbing the area with a cotton wool gauze (5×5 cm^2) soaked in D2O (12.5 mL) for 1 minute and then resuspending the gauze in the D2O solution, rapidly shaking and removing the gauze after squeezing out as much liquid as possible with a spatula. 1 M Stock solutions phosphate buffer, pH 5.7 and 7.0 were prepared by appropriately mixing 1 M stock phosphate salts solutions to the correct pH as determined using a calibrated pH meter.
Half of each buffer stock solution was diluted ten times with D2O and the other with the above skin washing stock solution to give a 0.1 M phosphate buffer in D2O with a final pH of 5.7, 0.1 M phosphate buffer in D2O with a final pH of 7.0, a 0.1 M phosphate buffer in skin wash solution with a final pH of 5.7 and a 0.1 M phosphate buffer in skin wash solution with a final pH of 7.0.
To three parallel reaction vials, where indicated in the reaction table below, was added 0.45 mL of low or high pH 0.1 M phosphate buffer in D2O or 0.45 mL of low or high pH 0.1M phosphate buffer in skin wash solution followed by 0.05 mL of the glycoside substrate solutions in D6-DMSO and the mixtures incubated by shaking at 37° C. After times indicated in table below, the mixtures where analysed by ^1H-NMR with 128 scans using a 400 MHz instrument.

[7] = system: mosquito Culex pipiens pallens; settings: Park et al., J. Am. Mosquito Control Assoc., 2005; cited from earlier work

CC(C)=CCC/C(C)=C/CO[C@@H]1O[C@H](CO)[C@@H](O)C(=O)[C@H]1O [geranyl-O-β-D-3′-ketoglucopyranoside, (2R,3S,6R)-2-(((E)-3,7-dimethylocta-2,6-dien-1-yl)oxy)-3,5-dihydroxy-6-(hydroxymethyl)tetrahydro-4H-pyran-4-one]
stability in D2O by 1H NMR (in words) [1]: stable | extent of conversion to geraniol by 1H-NMR [2]: approximately 50% | smell of geraniol [2]: a strong smell of geraniol was observed | Landing (total number of landings over the 20-minute exposure) ([3]; 6 h, listed as GS0010): 4 and 3 | Landing (total number of landings over the 20-minute exposure) ([3]; 8 h): 0 | repellent effect (conclusion in words) ([3]; in vivo): a repellent effect is provided | landings compared with diluent treated or untreated membranes (in words) ([3]; over 8 h): significantly fewer landings than observed with diluent treated or untreated membranes | Geraniol strength by smell ([4]; 0 h): strong | Geraniol strength by smell ([4]; 0.3 h): strong | Geraniol strength by smell ([4]; 2 h): strong | Geraniol strength by smell ([4]; 3 h): strong | Geraniol strength by smell ([4]; 4 h): strong | Geraniol strength by smell ([4]; 6 h): strong | Geraniol strength by smell ([4]; 11 h): medium | Geraniol strength by smell ([4]; 19 h): medium | degradation rate compared with compound (III) (in words) [5]: degraded significantly faster than compound (III) | aroma of geraniol on opening the stoppered reaction vessel ([5]; 20 mg/mL mixture, after 3 d): a very pungent aroma of geraniol was immediately noticeable | degraded ([5]; after 3 days): approximately 50% | % Conversion by 1H-NMR ([6]; 0.1M buffer in D2O, final pH 5.7, 19 h): 3% | % Conversion by 1H-NMR ([6]; 0.1M buffer in D2O, final pH 5.7, 41 h): 6% | % Conversion by 1H-NMR ([6]; 0.1M buffer in D2O, final pH 5.7, 72 h): 10% | % Conversion by 1H-NMR ([6]; 0.1M buffer in D2O, final pH 7.0, 19 h): 9% | % Conversion by 1H-NMR ([6]; 0.1M buffer in D2O, final pH 7.0, 41 h): 28% | % Conversion by 1H-NMR ([6]; 0.1M buffer in D2O, final pH 7.0, 72 h): 51% | % Conversion by 1H-NMR ([6]; 0.1M buffer in skin wash solution, final pH 7.0, 19 h): 10% | % Conversion by 1H-NMR ([6]; 0.1M buffer in skin wash solution, final pH 7.0, 41 h): 31% | % Conversion by 1H-NMR ([6]; 0.1M buffer in skin wash solution, final pH 7.0, 72 h): 48% | pH dependence of geraniol release (in words) ([6]; 37° C., presence or absence of skin wash): only slowly degraded at pH 5.8, but releases geraniol at a significantly higher rate at pH 7.4 that is unchanged in the presence or absence of skin wash

Cc1ccc(C(C)C)cc1O [Carvacrol, 2-methyl-5-propan-2-ylphenol]
repellency compared with DEET (in words) [7]: outperformed N,N-diethyl-m-methylbenzamide (DEET)

— US12509482B2, “3′-ketoglycoside compound for the slow release of a volatile alcohol” (GLYCOSCIENCE, S.L., priority 2020, dated 2025)
